Paper PMC7463734, “Identification and Validation of an Aspergillus nidulans Secondary Metabolite Derivative as an Inhibitor of the Musashi-RNA Interaction” (Cancers, 2020)
Like-named read-outs stand apart in the source and are kept apart here.

T1: RBD1 of MSI1 (Homo sapiens, UniProt O43347)
T1 construct: made in house; host or cells: Escherichia coli
T1 sequence (O43347 20-107): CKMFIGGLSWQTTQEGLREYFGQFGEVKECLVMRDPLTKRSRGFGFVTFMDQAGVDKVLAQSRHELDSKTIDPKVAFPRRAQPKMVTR

T2: MSI2-RBD1 (Homo sapiens, UniProt Q96DH6)
T2 construct: made in house
T2 sequence (Q96DH6 21-111 limits assumed): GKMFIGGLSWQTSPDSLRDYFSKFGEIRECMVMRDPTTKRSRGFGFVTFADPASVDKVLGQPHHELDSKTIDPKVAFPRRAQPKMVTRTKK


Columns and labels:
RBD1 of MSI1 = biological target: T1, RBD1 of MSI1; test: FP dose-response (competition) disrupting RBD1-Numb^FITC complex; format: binding
Protocol: To further examine the initial hits, we tested compounds with similar scaffolds shown in Figure 3 and Figure S1 in an FP dose-response assay. […] We thus focused our further validation studies on Aza-9.
Figure 4 FP dose-response validation compounds binding to RBD1 of MSI1. Ki values were calculated based on the Kd and the dose-response curves. TEXT PRINTED IN THE PICTURE: Aza-7: IC50 [μM]: 7.1; Ki [μM]: 3.0 | Aza-8: IC50 [μM]: 4.0; Ki [μM]: 1.7 | Aza-9: IC50 [μM]: 2.8; Ki [μM]: 1.2 | Aza-10: IC50 [μM]: 7.5; Ki [μM]: 3.2 | Aza-11: IC50 [μM]: 3.9; Ki [μM]: 1.7 | Aza-12: IC50 [μM]: 6.3; Ki [μM]: 2.7 | Aza-13: IC50 [μM]: 4.5; Ki [μM]: 1.9 | Aza-14: IC50 [μM]: 11.6; Ki [μM]: 5.0 | Aza-15: IC50 [μM]: >20 | Aza-16: IC50 [μM]: 6.8; Ki [μM]: 2.9 | Aza-17: IC50 [μM]: >20
pET21a-GB1-RBD1 (MSI1-RBD1) plasmids encoding the Homo sapiens RNA binding domain 1 (RBD1, residues 20-107) of MSI1 were constructed with Mus musculus cDNAs under T7 promoter. MSI1-RBD1 proteins were expressed in Escherichia coli and purified, as previously described. Protein concentrations were determined using the Bradford assay (Bio-Rad, Hercules, CA, USA). Purification of MSI2-RBD1 protein was carried out according to the previous publication.
FP, SPR and NMR assays were carried out according to the previous publication. For computer modeling of Aza-9 to MSI1/2, the AutoDock4.2.6 program was used for predicting the binding mode. The NMR structure of MSI1-RBD1 in complex with RNA (PDB: 2RS2) and the NMR structure of apo MSI2-RBD1 (PDB: 6C8U) were used as the receptor structure. The MSI1 RBD1–RNA interface and corresponding site in MSI2-RBD1 was used as the starting point for the docking calculations. The initial three-dimensional model of the Aza-9 compound was generated using the BABEL program and was used as starting coordinates to define the ligand structure. For docking, a grid box of size 40 × 44 × 56 A with 0.375 A spacing was centered at residue F23 in MSI1-RBD1 (or F24 in MSI2-RBD1). A total of 200 docking runs were carried out using the Lamarckian genetic algorithm. The docked conformation with the lowest energy was selected as the final conformation.

GB1-RBD1 (MSI1) = system: T3, GB1-RBD1 (MSI1); test: SPR binding to immobilized GB1-RBD1; parameters: species or system Homo sapiens; conditions: increasing concentrations
T3 construct: made in house; host or cells: Escherichia coli
Description: An SPR assay with the protein GB1-RBD1 and not the RNA allowed us to evaluate the binding of the compound to the protein directly.
Figure 5 Validation of the top hit Aza-9. (A) SPR analyses of Aza-9 binding to immobilized GB1-RBD1. Sensorgram representing direct binding kinetics for Aza-9 are shown in response units (RUs) as a function of time with increasing concentrations (shown as colorful lines). (B) Numb RNA pulldown. (Top) Numb^biotin (lane 4) can pull down MSI1 but not CTL^biotin (lane 3); Numb-Mut^biotin (lane 2) partially pulled down MSI1. […] (Bottom) 20 μM Aza-9 attenuated the binding between MSI1 and Numb^biotin RNA. n = 2, one representative western blot is shown. (C) Overlay of 15N-HSQC (Heteronuclear single quantum coherence spectroscopy) spectra sections of MSI1-RBD1 (black), and MSI1-RBD1 bound to Aza-9 at different ratios. (D) Computational docking of Aza-9 bound to RBD1. The Aza-9 is shown in sticks, and the protein is represented as spheres. Three of MSI1-RBD1 RNA binding residues (W29, F23, and K93) that undergo significant peak shifts are highlighted in cyan.
FP, SPR and NMR assays were carried out according to the previous publication. For computer modeling of Aza-9 to MSI1/2, the AutoDock4.2.6 program was used for predicting the binding mode. […]

MSI2-RBD1 = biological target: T2, MSI2-RBD1; test: FP dose response of binding to MSI2-RBD1 (Numb^FITC RNA)
Description: To test whether Aza-9 can be used as a dual inhibitor to block the RNA-binding ability of both Musashi proteins, we tested Aza-9 for Musashi-2 (MSI2) binding in FP and NMR assays as previously described. […] These residues are in similar positions to F23, F65, and K93 in MSI1-RBD1 [36]. We mapped the peak intensity ratios lower than one standard deviation from the mean (Figure S2) to the structure of MSI2-RBD1. Residues with significant peak intensity reductions clustered around the RNA binding site, which is composed of the central four anti-parallel β sheets and surrounding loops (Figure 6C).
Figure 6 Aza-9 binds to MSI2-RBD1. (A) FP dose response of Aza-9 binding to MSI2-RBD1. (B) ^1H-^15N HSQC spectra of 80 μM ^15N and ^13C ILV methyl labeled MSI2-RBD1 with increasing molar ratios of AZA-9. (C) Mapping residues with peak intensity ratio lower than one standard deviation from the mean onto the structure of MSI2-RBD1. Residues with peak intensity ratio lower than 0.40 are colored red; residues with peak intensity ratios in the range of 0.40–0.54 are colored yellow. (D) Computational docking of Aza-9 bound to MSI2-RBD1. The Aza-9 is shown in sticks, and the protein is represented as spheres. Five of MSI2-RBD1 RNA binding residues (M23, G26, F64, V95, and K94) that undergo significant peak shifts are highlighted in green. […]

HCT-116 = test: MTT-based cytotoxicity assay; format: cell-based, Human
Protocol: In an 3-(4,5-dimethylthiazol-2-yl)-2,5-diphenyl tetrazolium bromide (MTT)-based cytotoxicity assay, free Aza-9 had no effect on the cell viability (Figure 7A), potentially due to poor cellular uptake (Figure 7B, upper left panel). We then used PEGylated liposomes to facilitate Aza-9 entry into the cells (Figure 7B, bottom panel compare to upper left panel). Compared to the free Aza-9, which has no effect at 300 µM, Aza-9-liposome (Aza-9-lip) killed colon cancer cell line HCT-116 with an IC50 around 90 µM (Figure 7A). […] Consistent with MTT, Aza-9-lip, but not liposomes, inhibited cell proliferation in a cell growth assay (Figure 7C). […] (Figure 8A). To determine whether Aza-9-lip induces apoptosis and/or autophagy in the colon cancer cell lines, we first measured caspase-3 and PARP cleavage levels. As shown in Figure 8B and Figure S5, Aza-9-lip induced caspase-3 and PARP cleavage in HCT-116 and DLD-1 cells. […]
Human colon cancer cell lines HCT-116, DLD-1, and RKO were obtained from American Type Culture Collection (ATCC) and are as described by Lan et al.. Cell growth, MTT, cell cycle analysis, western blot analysis, RT-PCR, and quantitative real-time PCR were carried out according to our previous publications. For western blot analysis with Aza-9-liposome treatment, samples were collected after 24 h; for quantitative real-time PCR, samples were collected after 48 h. […]

MSI1 = system: T4, MSI1; test: Numb RNA pull-down from HCT-116 β/W cell lysate; format: cell-based, Human; conditions: 20 μM, 6 h
T4 construct: test whether biotinylated Numb RNA (Numb^biotin) can pull down MSI1 protein from the cell lysate; endogenous in cells; host or cells: HCT-116 β/W
Description: To test whether Aza-9 disrupts the binding of MSI1 to Numb RNA in cells, we carried out an RNA pull-down assay using HCT-116 β/W cell lysate. Before we tested our compound in the assay, we tested whether biotinylated Numb RNA (Numb^biotin) can pull down MSI1 protein from the cell lysate. […] Mutations in Numb (Numb-mut^biotin) attenuated its binding to MSI1 (lane 2 versus lane 4, Figure 5B and Figure S4 top panel). As a positive control, we added non-labelled Numb RNA to the system, Numb RNA completely abolished the binding between Numb^biotin and MSI1 (lane 6 versus lane 4, Figure 5B and Figure S4 top panel). […] Next, we tested whether Aza-9 can attenuate MSI1 RNA binding.
RNA pull-downs were carried out according to manufacturer’s protocol with modifications (Roche, Basel, Switzerland). Briefly, HCT-116 β/W cells were plated on 100 mm dish on day 1. The next day, cells were treated with Aza-9 (20 μM) or DMSO for 6 h, and cell lysates were collected using buffer 1 from IP kit (Roche). Protein concentrations were measured for each sample, and streptavidin beads were added for preclearance and incubated at 4 °C for 3 h. After preclearance, for each sample, 500 μg of total protein was transferred to a new tube. For positive control, unlabeled Numb (final concentration: 5 μM) was added and incubated in 4 °C. […]

GB1-MSI1-RBD1 = GB1-MSI1-RBD1 (Homo sapiens (Methods: human RBD1, …, UniProt O43347 20-107)); test: fluorescence polarization; 2-10 nM RNA; FP with 2 nM FITC-RNA; 0-2% DMSO had no significant effect (2 h incubation); buffer, salt, pH and temperature not given (cited to earlier publications); conditions: protein: recombinant; tags: GB1 (protein G B1 domain); label: 3'-FITC; single strand
[1] = FP dose-response, RBD1 of MSI1, read-out: IC50
[2] = calculated based on the Kd and the dose-response curves, read-out: Ki

Row | IC50 (RBD1 of MSI1; [1]) [nM] | Ki (RBD1 of MSI1; [2]) [nM] | Molecule | other results
1 | 3900 | 1700 | CC[C@H](C)/C=C(C)/C=C/C1=CC2=CC(=O)C(C)(O)C(=O)C2=CO1 (some centres unmarked) [Aza-11] | –
2 | – | – | CC[C@H](C)/C=C(C)/C=C/C1=CC2=C(Cl)C(=O)C(C)(O)C(=O)C2=CO1 (some centres unmarked) [Aza-12] | IC50 (RBD1 of MSI1): 6300 nM; Ki (RBD1 of MSI1): 2700 nM
3 | 2800 | 1200 | CC[C@H](C)/C=C(C)/C=C/C1=CC2=C(Br)C(=O)C(C)(OC(C)=O)C(=O)C2=CO1 (some centres unmarked) [Aza-9] | binding to GB1-RBD1 in SPR (GB1-RBD1 (MSI1)): dose-dependent binding; IC50 (MSI2-RBD1): 4100 nM; Ki (MSI2-RBD1): 500 nM; effect on cell viability (HCT-116; 300 µM, HCT-116): no effect; IC50 (HCT-116; Homo sapiens, HCT-116, MTT): > 300000 nM; dose-response effect in disrupting the RBD1-Numb^FITC complex / affinity towards GB1-RBD1 (RBD1 of MSI1): highest affinity; binding between MSI1 and Numb RNA (pull-down) (MSI1): attenuate, at least in part
4 | 4500 | 1900 | CC[C@H](C)/C=C(C)/C=C/C1=CC2=C(Br)C(=O)C(C)(O)C(=O)C2=CO1 (some centres unmarked) [Aza-13] | –
5 | – | – | UAGGUAGUAGUUUUA (ssRNA) [NumbFITC RNA] | Kd (GB1-MSI1-RBD1): < 250 nM

Row | Molecule | IC50 (RBD1 of MSI1; [1]) [nM] | Ki (RBD1 of MSI1; [2]) [nM] | other results
6 | CC[C@H](C)/C=C(C)/C=C/C1=CC2=C(Cl)C(=O)C(C)(OC(C)=O)C(=O)C2=CO1 (some centres unmarked) [Aza-8] | 4000 | 1700 | –
7 | CC[C@H](C)/C=C(C)/C=C/C1=CC2=C(Cl)C(=O)[C@](C)(OC(C)=O)C(=O)C2=CO1 [Aza-7, sclerotiorin] | 7100 | 3000 | –
